The record followed here is patent publication US9250231B2, “Method for selecting mevalonate synthesis modulators using cells derived from human pluripotent cells” (Centre d'Etude des Cellules Souches, priority 2010, dated 2016).

In data set [1] the test system is <<MSC>> WT cells derived from hES cells. As to the kind of experiment: Toxicity of simvastatin in 384-well multiwells, Cell Titer Glow. Format: cell-based, human. To be noted: 72 hours, 20% fetal calf serum, 2,000 cells per well, DMSO 0.2% 987206. An excerpt: Determination of the number of cells by the ATP amount is therefore possible. This approach allows automated readout of the number of cells. Similar results are obtained by using traces of mitochondrial activity. Differentiated cells of the MSC type, derived from hES cells, <<MSC>> WT, were sown on 384 multiwells gelatinized beforehand by using a distribution robot of the Bravo type, at the concentration of 2,000 cells per well.

Data set [2] concerns <<MSC>> SA01 cells derived from hES cells (SA01). As to the kind of experiment: Comparative toxicity of statins in 384-well plates, Cell Titer Glow, with and without mevalonate. Format: cell-based, human. To be noted: for cell viability as percentage of the result without any treatment, With Mevalonate / cell viability as percentage of the result without any treatment, Without Mevalonate: human, 72 h. The protocol:
For this experiment, the differentiated <<MSC>> SA01 cells derived from hES cells (SA01) were tested in 384-well plates by using a distribution robot and cell viability was measured by Cell Titer Glow after 72 hours of cultivation.
For orientation: ATP-based viability assays read luminescence as a measure of living cells.

In data set [3] the test system is cells derived from human embryonic stem cells SA01. In words: Growth capacity (maximum number of cells before senescence) of MSC type cells cultivated with or without FGF2 and AA2P. Format: cell-based. The settings on record: versus control FCS20%. As to the method:
(§1) The role of FGF2 and of ascorbic acid 2-phosphate on the growth capacities of the isolated cells according to the method of the invention was analyzed on cells derived from human embryonic stem cells SA01. The cells are cultivated in the presence of 20% fetal calf serum (control condition) and in the presence or in the absence of FGF2 and of ascorbic acid 2-phosphate (AA2P).

A further data set concerns SSEA4. In words: Flow cytometry of SSEA4 on MSC type cells derived from hES SA01. The class given is cell-based, human. To be noted: added to control FCS20%; FGF2 10 ng/ml, AA2P 1 mM; control 7. As to the method:
as §1
The presence of SSEA4 on cells cultivated under these different conditions were analyzed by flow cytometry by using a specific antibody directed against SSEA4.
In general terms: In flow cytometry, cells or beads pass a laser one at a time.

Data set [4] has as its system MSC cells derived from hES human cells SA01. As to the kind of experiment: Prestwick bank screening with and without mevalonate, Cell Titer Glow. Format: cell-based. To be noted: 2.5 μM, 72 h, mevalonate 2 mM, 96 wells, 20% fetal calf serum.

For `CCC(C)(C)C(=O)O[C@H]1C[C@@H](C)C=C2C=C[C@H](C)[C@H](CC[C@@H]3C[C@@H](O)CC(=O)O3)[C@H]21` [Simvastatin], in data set [1], the “amount of cells by Cell Titer Glow, Statin 2 μM” value came out at 474583. For the same molecule, in data set [2], the “cell viability as percentage of the result without any treatment, With Mevalonate” value amounted to 98.3% and the “cell viability as percentage of the result without any treatment, Without Mevalonate” value stood at 48.7%.
With `O=C1O[C@H]([C@@H](O)CO)C(O)=C1OP(=O)(O)O` [AA2P, Ascorbic Acid 2-Phosphate], the “increase of the amount of accumulated maximum cells” value in data set [3] is recorded as “less than 6 log factor”. Besides, the “Average fluorescence intensity (SSEA4)” value in the data set with SSEA4 was 7.
Regarding “FGF2: growth factor from the FGF family added to the culture medium”, in data set [3], the “increase of the amount of accumulated maximum cells” value is “less than 5 log factor”. The “Average fluorescence intensity (SSEA4)” value with SSEA4 is on record as 10.
Take Mevinolin: the “selected in screening 1 (toxicity of more than 35% in the absence, less than 20% in the presence of mevalonate)” value in data set [4] is “isolated”.
Consider `CC(C)n1c(/C=C/C(O)CC(O)CC(=O)O)c(-c2ccc(F)cc2)c2ccccc21` (centres unmarked) [Fluvostatin], for which, in data set [2], the “comparative toxicity of statins” value is recorded as “more toxic than simvastatin”; the “cell viability as percentage of the result without any treatment, With Mevalonate” value came out at 104%; the “cell viability as percentage of the result without any treatment, Without Mevalonate” value was determined as 32.8%.
